Measured values reported in patent US6833372B2, “Non-peptide GnRH agents, Pharmaceutical compositions, and methods for their use” (Pfizer, Inc., priority 2002, dated 2004).
Where two headings read alike, the source gives them in different places.

Tests used:
[1] = In vitro metabolism: disappearance of parent compound in dog liver microsomes; assay type: in vitro ADME; conditions: 5 uM compound, 30 minutes 37° C.
Method: (§1) Human, rat, dog, and monkey liver microsomes were isolated by differential centrifugation. Specimens of human liver were obtained from the International Institute for the Advancement of Medicine (Scranton, Pa.). The disappearance of the parent compound was studied in a mixture containing 5 uM compound, 0.5 mg/ml microsomal protein, and 2 mM NADPH in 50 mM K phosphate buffer, pH 7.4. Samples were incubated for 30 minutes at 37° C. The reaction was terminated by the addition of acetonitrile and compounds analyzed by LC-MS as described above.

[2] = Pharmacokinetics in rats (jugular vein cannula, plasma LC-MS); assay type: in vivo, Rat; conditions: for Cmax / half-life / Tmax: rat, plasma
Method: Rats (male or female, 200-225 g) were prepared with indwelling jugular vein cannula as described by Harms et al., Applied Physiol. 36:391-398 (1974), and allowed to recover overnight with free access to the standard vivarium chow and water. […] […] The blood samples were withdrawn at specific times, plasma was immediately separated and compound extracted with ethyl acetate. The samples were analyzed by LC-MS using 30-90% gradient of ACN in 50 mM ammonium acetate.
The pharmacokinetic parameters were calculated using WinNonlin software (Scientific Consulting Inc.). The bioavailability was calculated as AUCp.o./AUCi.v., where AUCp.o. and AUC i.v. are areas under the plasma concentration-time curve after oral and i.v. administration, respectively.

human GnRH receptors = molecular target: T1, human GnRH receptors (Homo sapiens, UniProt P30968); assay: Radioligand binding: inhibition of 125I-GnRH-A binding to human GnRH receptor membranes; conditions: HEK 293 cell membranes
T1 construct: expressed in transfected cells; host or cells: HEK 293 cells, stably transfected; membranes
T1 sequence (P30968 1-328): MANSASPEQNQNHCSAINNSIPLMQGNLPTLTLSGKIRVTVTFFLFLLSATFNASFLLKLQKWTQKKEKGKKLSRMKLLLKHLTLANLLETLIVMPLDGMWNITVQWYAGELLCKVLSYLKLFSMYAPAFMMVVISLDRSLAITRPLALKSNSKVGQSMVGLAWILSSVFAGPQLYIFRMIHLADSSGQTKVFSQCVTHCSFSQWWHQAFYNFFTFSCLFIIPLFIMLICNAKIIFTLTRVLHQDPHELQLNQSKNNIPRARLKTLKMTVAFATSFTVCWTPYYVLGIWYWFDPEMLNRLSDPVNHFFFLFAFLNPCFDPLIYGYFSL
Summary of the method: (§2)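 Membranes from rat pituitaries, or HEK 293 cells stably expressing mouse or human receptor, incubated 1 hour at room temperature with ~0.04-0.06 nM radioligand (HEPES pH 7.4, EDTA, MgCl2, BSA) and competitor at 0.1-10,000 nM. Bound ligand collected by GF/C filtration and counted; Ki derived from IC50 by Cheng-Prusoff.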

[3] = In vitro metabolism: disappearance of parent compound in monkey liver microsomes; assay type: in vitro ADME; conditions: 5 uM compound, 30 minutes 37° C.
Method: as §1

Rat plasma % remain = assay type: in vitro ADME
H S A = H S A (Homo sapiens, UniProt P02768); assay: H S A column α; assay type: in vitro ADME
[4] = In vitro metabolism: disappearance of parent compound in rat liver microsomes (male, female); assay type: in vitro ADME; conditions: 5 uM compound, 30 minutes 37° C.; for Fem. Rat (FR) % rem. 30′: female rat liver microsomes; for Male Rat (MR) % rem. 30′: male rat liver microsomes
Method: as §1

rat GnRH receptor = molecular target: T2, rat GnRH receptor (Rattus norvegicus, UniProt P30969); assay: Radioligand binding: inhibition of 125I-GnRH-A binding to rat GnRH receptor (rat pituitary membranes); conditions: read-out: Ki (nM), Inhibition Binding of 125I-GnRH-A to GnRH Receptors
T2 construct: or rat pituitaries (Pel Freez Biologicals, Rogers, Ark.) were homogenized; tissue Pel Freez Biologicals; host or cells: rat pituitaries (membrane preparation)
T2 sequence (P30969 1-327): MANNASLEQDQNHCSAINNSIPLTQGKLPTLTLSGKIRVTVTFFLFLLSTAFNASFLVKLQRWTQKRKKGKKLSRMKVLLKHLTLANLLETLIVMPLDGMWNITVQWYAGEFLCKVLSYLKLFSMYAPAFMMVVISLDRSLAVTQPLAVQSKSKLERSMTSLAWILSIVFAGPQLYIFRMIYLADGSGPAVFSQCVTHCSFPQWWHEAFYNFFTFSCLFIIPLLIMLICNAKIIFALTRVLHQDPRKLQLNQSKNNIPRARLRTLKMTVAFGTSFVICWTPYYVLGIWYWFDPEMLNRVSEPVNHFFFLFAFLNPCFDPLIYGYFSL
Summary of the method: as §2

[5] = Solubility at pH2 and pH6; assay type: physicochemical
[6] = In vitro metabolism: disappearance of parent compound in human liver microsomes; assay type: in vitro ADME; conditions: 5 uM compound, 0.5 mg/ml protein, 2 mM NADPH, 30 minutes 37° C.
Method: as §1

[7] = female rat, 10 mg/kg as 5 mg/ml solution in 10% DMSO, 10% cremophor, 80% saline (footnote 5)
[8] = female, po, 10 mg/kg, female rat, 10 mg/kg as 5 mg/ml solution in 10% DMSO, 10% cremophor, 80% saline (footnote 5), read-out: FR Cmax
[9] = female, po, 10 mg/kg, female rat, 10 mg/kg as 5 mg/ml solution in 10% DMSO, 10% cremophor, 80% saline (footnote 5), read-out: FR T1/2 hr (converted)
[10] = female, po, 10 mg/kg, female rat, 10 mg/kg as 5 mg/ml solution in 10% DMSO, 10% cremophor, 80% saline (footnote 5), read-out: FR Tmax hr
[11] = pH 6, aqueous buffer, pH6, read-out: Solubility μg/ml pH6

Chain of H S A (P02768 25-609): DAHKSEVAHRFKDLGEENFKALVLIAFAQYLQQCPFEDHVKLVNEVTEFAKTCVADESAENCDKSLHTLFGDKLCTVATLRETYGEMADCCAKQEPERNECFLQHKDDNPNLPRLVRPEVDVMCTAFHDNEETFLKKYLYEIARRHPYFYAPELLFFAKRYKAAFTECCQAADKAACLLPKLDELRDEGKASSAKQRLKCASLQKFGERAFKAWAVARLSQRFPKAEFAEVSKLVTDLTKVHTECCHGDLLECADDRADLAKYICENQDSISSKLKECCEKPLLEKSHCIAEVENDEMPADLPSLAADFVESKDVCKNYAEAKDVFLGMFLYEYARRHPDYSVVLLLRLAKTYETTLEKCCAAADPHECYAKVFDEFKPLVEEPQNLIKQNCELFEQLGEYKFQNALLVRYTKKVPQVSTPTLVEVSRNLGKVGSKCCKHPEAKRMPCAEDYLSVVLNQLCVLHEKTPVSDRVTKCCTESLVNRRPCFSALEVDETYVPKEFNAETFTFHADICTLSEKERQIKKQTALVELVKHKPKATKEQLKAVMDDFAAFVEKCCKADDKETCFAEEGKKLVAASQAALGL

Row | SMILES | Dog % rem. 30′ [1] [%] | FR Fp.o. [2, 7] [%^5] | Cmax [2, 8] [nM] | half-life [2, 9] [h] | Tmax [2, 10] [h] | Ki (human GnRH receptors) [nM] | Monkey % rem. [3] [%] | Rat plasma % remain (Rat plasma % remain) [%] | H S A column α (H S A) | Fem. Rat (FR) % rem. 30′ [4] [%] | Male Rat (MR) % rem. 30′ [4] [%] | Ki (rat GnRH receptor) [nM] | solubility [5, 11] [µg/mL] | Human % rem. 30′ [6] [%] | MR Fp.o. ([2]; male rat, male rats dosed orally at 50 mg/kg) [%] | Cmax ([2]; male, oral, 50 mg/kg, male rat, male rats dosed orally at 50 mg/kg, read-out: MR Cmax) [nM] | half-life ([2]; male, oral, 50 mg/kg, male rat, male rats dosed orally at 50 mg/kg, read-out: MR T1/2 hr (converted)) [h] | Tmax ([2]; male, oral, 50 mg/kg, male rat, male rats dosed orally at 50 mg/kg, read-out: MR Tmax hr) [h] | solubility ([5]; pH 2, simulated gastric fluid, pH2, read-out: Solubility μg/ml pH2) [µg/mL]
1 | COc1nc(Nc2ccccc2)nc(OC)c1NC(=O)c1ccc(Cc2cc3c(cc2C)C(C)(C)OC3(C)C)o1 [Example D1, 5-(1,1,3,3,6-Pentamethyl-1,3-dihydro-isobenzofuran-5-ylmethyl)-furan-2-carboxylic Acid (4,6-dimethoxy-2-phenylamino-pyrimidin-5-yl)-amide] | 52 | 2 | 100 | 1.2 | 1 | 1.6 | 22 | 100 | 8 | 81 | 20 | 2.1 | > 15 | 82 |  |  |  |  | 
2 | COc1nc(NCCN2CCCC2)nc(OC)c1NC(=O)c1ccc(Cc2cc3c(cc2C)C(C)(C)OC3(C)C)o1 [Example D5] | 98 |  |  |  |  | 1.5 | 30 |  | 2 | 95 | 79 | 0.84 | > 30 | 80 | 34 | 700 | 7 | 4 | > 30
3 | CCN(CC)CCNc1nc(OC)c(NC(=O)c2ccc(Cc3cc4c(cc3C)C(C)(C)OC4(C)C)o2)c(OC)n1 [Example D7, N-(2-{[2-(Diethylamino)ethyl]amino}-4,6-dimethoxypyrimidin-5-yl)-5-[(1,1,3,3,6-pentamethyl-1,3-dihydro-2-benzofuran-5-yl)methyl]-2-furamide] | 91 | 30 | 500 | 4.1 | 2 | 6 | 16 | 100 | 2 | 95 | 91 | 2.2 |  | 91 |  |  |  |  | 
4 | COc1nc(N(C)C)nc(OC)c1NC(=O)c1ccc(Cc2cc3c(cc2C)C(C)(C)OC3(C)C)o1 [Example D8, N-[2-(Dimethylamino)-4,6-dimethoxypyrimidin-5-yl]-5-[(1,1,3,3,6-pentamethyl-1,3-dihydro-2-benzofuran-5-yl)methyl]-2-furamide] | 49 |  |  |  |  | 6 | 4 | 100 | 3 | 84 | 58 | 31 |  | 73 |  |  |  |  | 
5 | COc1nc(NCCCN(C)C)nc(OC)c1NC(=O)c1ccc(Cc2cc3c(cc2C)C(C)(C)OC3(C)C)o1 [Example D9, N-(2-{[3-(Dimethylamino)propyl]amino}-4,6-dimethoxypyrimidin-5-yl)-5-[(1,1,3,3,6-pentamethyl-1,3-dihydro-2-benzofuran-5-yl)methyl]-2-furamide] | 100 | 57 | 800 | 4.3 | 2 | 3 | 44 | 100 | 2 | 100 | 80 | 0.54 |  | 89 |  |  |  |  | 
6 | COc1nc(NCCCNCCCN)nc(OC)c1NC(=O)c1ccc(Cc2cc3c(cc2C)C(C)(C)OC3(C)C)o1 [Example D17, N-[2-({3-[(3-Aminopropyl)amino]propyl}amino)-4,6-dimethoxypyrimidin-5-yl}-5-[(1,1,3,3,6-pentamethyl-1,3-dihydro-2-benzofuran-5-yl)methyl]-2-furamide] | 29 |  |  |  |  | 0.65 | 42 |  | 10 | 24 | 23 | 0.2 |  | 45 |  |  |  |  | 
7 | COc1nc(NCCCN2CCOCC2)nc(OC)c1NC(=O)c1ccc(Cc2cc3c(cc2Cl)C(C)(C)CCC3(C)C)o1 [Example G1, 5-(3-Chloro-5,5,8,8-tetramethyl-5,6,7,8-tetrahydro-naphthalen-2-ylmethyl)-furan-2-carboxylic acid[4,6-dimethoxy-2-(3-morpholin-4-yl-propylamino)-pyrimidin-5-yl]-amide] | 70 | 10 | 200 | 4.1 | 2 | 1.7 | 0 | 92 | >30 | 92 | 80 | 0.9 |  | 79 |  |  |  |  | 
